From paper doi:10.1101/2023.09.29.560149v2 (biorxiv, 2024)

Columns and labels:
[1] = test system: Chikungunya virus CHIKV; test: microbe, parasite or virus in culture; conditions: Vero, 24 h, read-out: CHIKV EC50 (µM)
[2] = in vitro; conditions: hamster, bhk-21 cells
[3] = in vitro; conditions: african green monkey, vero cells
[4] = test system: Sindbis virus SINV; test: microbe, parasite or virus in culture; conditions: Vero, 24 h, read-out: SINV EC50 (µM)

| Compound | EC50 [1] | CC50 at 24 h [2] | CC50 at 24 h [3] | EC50 [4] |
| --- | --- | --- | --- | --- |
| C[C@H]1CC[C@]2(NC1)O[C@H]1C[C@H]3[C@@H]4CC[C@H]5C[C@@H](O)CC[C@]5(C)[C@H]4CC[C@]3(C)[C@H]1[C@@H]2C [Tomatidine] | 5.35 µM | 23.8 µM | 17.2 µM | 2.47 µM |
| O=C1Nc2ccc(Cl)cc2[C@@](C#CC2CC2)(C(F)(F)F)O1 [efavirenz] | 1.33 µM | 40.9 µM | 53.6 µM | 0.72 µM |
